According to patent US20060222675A1, “Personal care compositions with color changing indicator” (priority 2005, published 2006):

System: bacteria, virus and yeast
Assay: germicidal efficacy of surfactant-detergent compounds
Settings: surfactants tested separately and in combination
Excerpt: Disinfecting surfactant-detergent compounds are also used in the liquid composition. Surfactants are effective germicides and attack the membranes of the organisms. Also, the surfactants are surface active reducing surface tension. […] It is thought that the surfactant has two characteristics which contribute to this invention. Those being germicidal activity including effectiveness over a wide range of organisms including bacteria, virus and yeast and providing a reduction of the surface tension of the composition to achieve effective spread and distribution if the germicide on the surface to be disinfected. Two different types of surfactants were tested separately and in combination for efficacy. […] There are other compounds which have the properties of germicide-surfactants, and this invention is not limited to those compounds shown in the examples.

Molecule | efficacy as germicide-surfactant
CCCCCCCCCCCCOS(=O)(=O)[O-].[Na+] [sodium dodecyl sulfate] | effective germicide-surfactants
octyl phenoxy polyethoxyethanol | effective germicide-surfactants
